Where two headings read alike, the source gives them in different places. *1 amine or outer side, *2 acyl side, *3 side chain or, on linkers, in order; H or OH if unused. Where a SMILES comes first, the peptide text is derived from it. Side-chain parts run from the residue outwards. [ ]: non-standard residue; d: D form. The star is where a group is joined. αMePhe(2-F) = C[C@](N)(Cc1ccccc1F)C(=O)O; γGlu = O=C(O)[C@H](CCC(=O)[*:2])N[*:1]; C14 diacid = O=C(O)CCCCCCCCCCCCC(=O)*; αMeY = C[C@](N)(Cc1ccc(O)cc1)C(=O)O; 4Pal = N[C@@H](Cc1ccncc1)C(=O)O; αMeL = CC(C)C[C@](C)(N)C(=O)O; αMeS = C[C@](N)(CO)C(=O)O; Orn = NCCC[C@H](N)C(=O)O; AEEA = NCCOCCOCC(=O)O; Aib = CC(C)(N)C(=O)O
How the values were obtained:
Format in all cases: cell-based
[1] = biological target: T1, hGCGR (Homo sapiens, UniProt P47871); assay: Functional cAMP formation (HTRF) in HEK-293 clonal cells expressing hGCGR, 0.1% bovine casein, without or with 1.0% human serum albumin; conditions: geometric mean
T1 construct: expressed in transfected cells
T1 sequence (P47871 26-477): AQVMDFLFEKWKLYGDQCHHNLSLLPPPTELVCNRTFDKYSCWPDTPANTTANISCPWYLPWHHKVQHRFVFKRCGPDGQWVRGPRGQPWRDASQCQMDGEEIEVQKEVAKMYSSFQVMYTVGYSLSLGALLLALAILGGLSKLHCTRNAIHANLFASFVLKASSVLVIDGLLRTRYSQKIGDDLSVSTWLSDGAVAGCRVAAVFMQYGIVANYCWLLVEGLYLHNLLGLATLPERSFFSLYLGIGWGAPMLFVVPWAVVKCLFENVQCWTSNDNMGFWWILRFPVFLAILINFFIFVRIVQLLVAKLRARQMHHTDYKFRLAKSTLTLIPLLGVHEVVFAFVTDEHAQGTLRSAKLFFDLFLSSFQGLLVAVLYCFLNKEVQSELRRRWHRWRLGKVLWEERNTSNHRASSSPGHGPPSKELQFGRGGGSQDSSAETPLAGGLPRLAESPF
In short: (§1)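 Cells were stimulated with peptide for 30 min at 37° C, then lysed in buffer carrying cAMP-d2 and anti-cAMP Eu3+-cryptate for a competitive HTRF read after at least 60 min at room temperature. The 665/620 nm ratio was converted to nM cAMP against a standard curve.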

[2] = biological target: T2, hGIPR (Homo sapiens, UniProt P48546); assay: Functional cAMP formation (HTRF) in HEK-293 clonal cells expressing hGIPR, 0.1% bovine casein, without or with 1.0% human serum albumin; conditions: for EC50: cAMP, 0.1% bovine casein (no human serum albumin), geometric mean
T2 construct: expressed in transfected cells
T2 sequence (P48546 22-466): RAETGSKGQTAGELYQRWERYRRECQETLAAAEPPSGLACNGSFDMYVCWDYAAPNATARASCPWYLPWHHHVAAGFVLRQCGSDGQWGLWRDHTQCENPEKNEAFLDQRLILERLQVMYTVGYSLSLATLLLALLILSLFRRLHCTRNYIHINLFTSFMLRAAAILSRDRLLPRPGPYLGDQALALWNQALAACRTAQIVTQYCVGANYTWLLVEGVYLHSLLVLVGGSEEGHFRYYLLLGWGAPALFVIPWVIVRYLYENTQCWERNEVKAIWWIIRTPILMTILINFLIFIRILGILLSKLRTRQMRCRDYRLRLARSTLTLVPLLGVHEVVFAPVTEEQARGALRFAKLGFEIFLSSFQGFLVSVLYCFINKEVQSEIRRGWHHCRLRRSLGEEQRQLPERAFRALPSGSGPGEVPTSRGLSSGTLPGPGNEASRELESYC
In short: as §1

[3] = biological target: hGLP-1R (Homo sapiens, UniProt P43220); assay: Functional cAMP formation (HTRF) in HEK-293 clonal cells expressing hGLP-1R, 0.1% bovine casein, without or with 1.0% human serum albumin; design: expressed in transfected cells; conditions: for EC50: cAMP, 0.1% bovine casein (no human serum albumin), geometric mean
hGLP-1R, sequence (P43220 24-463): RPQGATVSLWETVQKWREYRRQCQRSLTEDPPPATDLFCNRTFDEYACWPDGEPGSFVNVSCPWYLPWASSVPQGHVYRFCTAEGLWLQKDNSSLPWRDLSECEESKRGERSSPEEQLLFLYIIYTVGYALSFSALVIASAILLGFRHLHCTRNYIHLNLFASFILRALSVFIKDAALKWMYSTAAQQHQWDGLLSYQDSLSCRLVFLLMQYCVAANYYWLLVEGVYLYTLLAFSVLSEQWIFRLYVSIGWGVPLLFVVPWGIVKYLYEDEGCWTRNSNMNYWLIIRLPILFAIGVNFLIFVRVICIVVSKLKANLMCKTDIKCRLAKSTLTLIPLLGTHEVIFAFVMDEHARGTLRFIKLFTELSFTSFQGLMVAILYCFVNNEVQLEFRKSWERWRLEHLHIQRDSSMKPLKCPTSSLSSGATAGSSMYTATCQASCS
In short: as §1

Structure (SMILES) | EC50 ([1]; 0.1% bovine casein and 1.0% human serum albumin, 37° C., read-out: hGCGR EC50, nM (SEM, n)) [nM] | EC50 ([1]; cAMP, 37° C., 0.1% bovine casein (no human serum albumin), read-out: hGCGR EC50, nM (SEM, n)) [nM] | Emax ([2]; HEK293, 0.1% bovine casein and 1.0% human serum albumin, 37° C., percent of maximal response to GIP(1-42)NH2, read-out: hGIPR Emax, % ± SEM) [%] | Emax ([2]; HEK293, cAMP, 37° C., 0.1% bovine casein, percent of maximal response to GIP(1-42)NH2, arithmetic mean, read-out: hGIPR Emax, % ± SEM) [%] | EC50 ([2]; 37° C., read-out: hGIPR EC50, nM (SEM, n)) [nM] | EC50 ([3]; 37° C., read-out: hGLP-1R EC50, nM (SEM, n)) [nM] | EC50 ([1]; hGCGR EC50, nM (SEM, n), 0.1% bovine casein and 1.0% human serum albumin, 37° C.) [nM] | EC50 ([1]; hGCGR EC50, nM (SEM, n), cAMP, incubated at 37° C., 0.1% bovine casein (no human serum albumin)) [nM] | Emax ([2]; HEK293, read-out: hGIPR Emax, % ± SEM, 0.1% bovine casein and 1.0% human serum albumin, 37° C., percent of maximal response to GIP(1-42)NH2) [%] | Emax ([2]; HEK293, read-out: hGIPR Emax, % ± SEM, percent of maximal response to GIP(1-42)NH2, 37° C., 0.1% bovine casein, arithmetic mean) [%] | EC50 ([2]; hGIPR EC50, nM (SEM, n), incubated at 37° C.) [nM] | Emax ([3]; HEK293, read-out: hGLP-1R Emax, % ± SEM, percent of maximal response to GLP-1(7-36)NH2, 37° C., 0.1% bovine casein, arithmetic mean) [%] | EC50 ([3]; hGLP-1R EC50, nM (SEM, n), incubated at 37° C.) [nM]
CC[C@H](C)[C@H](NC(=O)[C@H](CC(C)C)NC(=O)[C@](C)(Cc1ccc(O)cc1)NC(=O)[C@@H](CCC(=O)O)NC(=O)[C@@H](NC(=O)[C@H](Cc1ccccc1)NC(=O)[C@H](CCCCNC(=O)COCCOCCNC(=O)COCCOCCNC(=O)CCCCCCCCCCCCC(=O)O)NC(=O)C(C)(C)NC(=O)[C@H](CCC(N)=O)NC(=O)[C@H](C)NC(=O)[C@H](CCCCNC(=O)COCCOCCNC(=O)COCCOCCNC(=O)CCCCCCCCCCCCC(=O)O)NC(=O)[C@H](CCCN)NC(=O)[C@H](CC(=O)O)NC(=O)[C@H](CC(C)C)NC(=O)[C@](C)(CC(C)C)NC(=O)[C@@H](NC(=O)[C@H](CO)NC(=O)[C@H](Cc1ccc(OC)cc1)NC(=O)[C@H](CC(=O)O)NC(=O)[C@H](CO)NC(=O)[C@@H](NC(=O)[C@](C)(Cc1ccccc1F)NC(=O)[C@@H](NC(=O)CNC(=O)[C@H](CCC(=O)O)NC(=O)C(C)(C)NC(=O)[C@@H](N)Cc1ccc(O)cc1)[C@@H](C)O)[C@@H](C)O)[C@@H](C)CC)[C@@H](C)CC)C(=O)N[C@@H](CCC(=O)O)C(=O)NCC(=O)NCC(=O)N1CCC[C@H]1C(=O)N[C@@H](CO)C(=O)N[C@@H](CO)C(=O)NCC(=O)N[C@@H](C)C(=O)N1CCC[C@H]1C(=O)N1CCC[C@H]1C(=O)N1CCC[C@H]1C(=O)N[C@@H](CO)C(N)=O [Example 265] (H-Y[Aib]EGT[αMePhe(2-F)]TSDY(Me)SI[αMeL]LD[Orn]K([AEEA-AEEA-C14 diacid])AQ[Aib]K([AEEA-AEEA-C14 diacid])FI[dE][αMeY]LIEGGPSSGAPPPS-NH2) | > 9950 | > 9950 | 96 | 100 | 0.0145 | 0.262 |  |  |  |  |  |  | 
CC[C@H](C)[C@H](NC(=O)[C@H](CCCN)NC(=O)[C@H](CC(=O)O)NC(=O)[C@H](CC(C)C)NC(=O)[C@](C)(CC(C)C)NC(=O)[C@@H](NC(=O)[C@](C)(CO)NC(=O)[C@H](Cc1ccncc1)NC(=O)[C@H](CC(=O)O)NC(=O)[C@H](CO)NC(=O)[C@@H](NC(=O)[C@](C)(Cc1ccccc1F)NC(=O)[C@@H](NC(=O)CNC(=O)[C@H](CCC(=O)O)NC(=O)C(C)(C)NC(=O)[C@@H](N)Cc1ccc(O)cc1)[C@@H](C)O)[C@@H](C)O)[C@@H](C)CC)C(=O)N[C@@H](C)C(=O)N[C@@H](CCC(N)=O)C(=O)NC(C)(C)C(=O)N[C@@H](CCCCNC(=O)COCCOCCNC(=O)COCCOCCNC(=O)CC[C@H](NC(=O)CCCCCCCCCCCCC(=O)O)C(=O)O)C(=O)N[C@@H](Cc1ccccc1)C(=O)N[C@H](C(=O)N[C@@H](CCCCNC(=O)COCCOCCNC(=O)COCCOCCNC(=O)CC[C@H](NC(=O)CCCCCCCCCCCCC(=O)O)C(=O)O)C(=O)N[C@@](C)(Cc1ccc(O)cc1)C(=O)N[C@@H](CC(C)C)C(=O)N[C@H](C(=O)N[C@@H](CCC(=O)O)C(=O)NCC(=O)NCC(=O)N1CCC[C@H]1C(=O)N[C@@H](CO)C(=O)N[C@@H](CO)C(=O)NCC(=O)N[C@@H](C)C(=O)N1CCC[C@H]1C(=O)N1CCC[C@H]1C(=O)N1CCC[C@H]1C(=O)N[C@@H](CO)C(N)=O)[C@@H](C)CC)[C@@H](C)CC [Example 215] (H-Y[Aib]EGT[αMePhe(2-F)]TSD[4Pal][αMeS]I[αMeL]LD[Orn]IAQ[Aib]K([AEEA-AEEA-γGlu-C14 diacid])FIK([AEEA-AEEA-γGlu-C14 diacid])[αMeY]LIEGGPSSGAPPPS-NH2) |  |  |  |  |  |  | > 9950 | > 9950 | 91.3 | 85 | 0.0437 | 89.8 | 0.44

Source: US20230265151A1, “GIP/GLP1 CO-AGONIST COMPOUNDS” (priority 2020, published 2023)
